Results from patent publication US7973080B2 (Ambria Dermatology AB, priority 2003, dated 2011).

Legend:
[1] = tested on: Alphastreptococci; test: MIC by standard blood agar dilution technique; conditions: inoculate size 10^3
From the text: (§1) The following bacteria were investigated: methicillin-resistant Staphylococcus aureus (MSRA), fucidic acid-resistant S. aureus, non-resistant S. pyogenes, coagulation-negative staphylococci (for resistance, see Table 1 below) vancomycin-resistant enterococci (Enterococcus CCUG van A and van B), non-resistant Escherichia coli, Acinetobacter resistant against cefadroxil, nitrofurantin, mecillinam, Serratia maltophilia resistant against most types of antibiotics, Enterobacter (for resistance, see Table 1 below; additionally resistant against cefadroxil and nitrofurantin), non-resistant α-streptococci, non-resistant Streptococcus Group G, Pseudomonas aeruginosa (for resistance, see Table 2 below). Inocula of 10^3 and 10^5 bacteria were used.

[2] = tested on: S. maltophilia; test: MIC by standard blood agar dilution technique; conditions: inoculate size 10^3
From the text: as §1

[3] = tested on: Streptococcus group C; test: MIC by standard blood agar dilution technique; conditions: inoculate size 10^3
From the text: as §1

[4] = tested on: male rabbits; conditions: four male rabbits, skin sealed 24 hrs, highest tested dose 20 ml/kg, observed over a fortnight
Protocol: Topical administration. The penetration of rabbit skin was tested with a cuff model. The hair on the back of four male rabbits weighing from 2.5 to 3.5 kg was removed by shaving, the diol applied to the skin with a pipette, and the skin sealed with polyethylene film for 24 hrs. During the test period the animals were immobilised. After the exposure the animals were observed over a fortnight period.

[5] = tested on: Acinetobacter; test: MIC by standard blood agar dilution technique; conditions: inoculate size 10^3
From the text: as §1

[6] = tested on: S. pyogenes, group A; test: MIC by standard blood agar dilution technique
From the text: as §1

[7] = tested on: S. aureus; test: MIC by standard blood agar dilution technique
From the text: as §1

[8] = tested on: Escherichia coli; test: MIC by standard blood agar dilution technique
From the text: as §1

`OCCCCCO` [pentane-1,5-diol] was tested, and the “MIC (% by weight of pentane-1,5-diol)” value ([1]; Alphastreptococci 912 × 1135) was 7.5 % by weight, the “MIC (% by weight of pentane-1,5-diol)” value ([1]; Alphastreptococci 912 × 1137) was 5.0 % by weight and the “MIC (% by weight of pentane-1,5-diol)” value ([1]; Alphastreptococci 912 × 1138) was 5.0 % by weight. The “MIC (% by weight of pentane-1,5-diol)” value ([1]; Alphastreptococci 912 × 1139) was 7.5 % by weight, the “MIC (% by weight of pentane-1,5-diol)” value ([1]; Alphastreptococci 912 × 1200) was 7.5 % by weight and the “MIC (% by weight of pentane-1,5-diol)” value ([2]; S. maltophilia 515 × 695) was 5.0 % by weight. The “MIC (% by weight of pentane-1,5-diol)” value ([2]; S. maltophilia 515 × 1269) was 2.5 % by weight, the “MIC (% by weight of pentane-1,5-diol)” value ([2]; S. maltophilia 516 × 679) was 5.0 % by weight and the “MIC (% by weight of pentane-1,5-diol)” value ([2]; S. maltophilia 900 × 1230) was 5.0 % by weight. For the same molecule, the “MIC (% by weight of pentane-1,5-diol)” value ([2]; S. maltophilia 921 × 16157) was 5.0 % by weight, the “MIC (% by weight of pentane-1,5-diol)” value ([3]; Streptococcus group C 900 × 1618) was 7.5 % by weight and the “MIC (% by weight of pentane-1,5-diol)” value ([3]; Streptococcus group C 912 × 1114) was 10.0 % by weight. The “MIC (% by weight of pentane-1,5-diol)” value ([3]; Streptococcus group C 912 × 1185) was 10.0 % by weight, the “survival after topical administration” value [4] was “the animals survived” and the “MIC (% by weight of pentane-1,5-diol)” value ([5]; Acinetobacter 116 × 305) was 5.0 % by weight. For the same molecule, the “MIC (% by weight of pentane-1,5-diol)” value ([5]; Acinetobacter 117 × 217) was 5.0 % by weight, the “MIC (% by weight of pentane-1,5-diol)” value ([5]; Acinetobacter 514 × 1224) was 5.0 % by weight and the “MIC (% by weight of pentane-1,5-diol)” value ([5]; Acinetobacter 516 × 748) was 2.5 % by weight. For the same molecule, the “MIC (% by weight of pentane-1,5-diol)” value ([5]; Acinetobacter 921 × 16968) was 5.0 % by weight, the “MIC (% by weight of pentane-1,5-diol)” value ([5]; Acinetobacter 921 × 113359) was 2.5 % by weight and the “MIC (% by weight of pentane-1,5-diol)” value ([6]; group A 912 × 1090, inoculate size 10^3) was 7.5 % by weight. The “MIC (% by weight of pentane-1,5-diol)” value ([6]; group A 912 × 1115, inoculate size 10^3) was 7.5 % by weight, the “MIC (% by weight of pentane-1,5-diol)” value ([6]; group A 912 × 1119, inoculate size 10^3) was 7.5 % by weight and the “MIC (% by weight of pentane-1,5-diol)” value ([6]; group A 912 × 1121, inoculate size 10^3) was 7.5 % by weight. For the same molecule, the “MIC (% by weight of pentane-1,5-diol)” value ([6]; group A 912 × 1131, inoculate size 10^3) was 7.5 % by weight, the “MIC (% by weight of pentane-1,5-diol)” value ([7]; S. aureus 916 × 8137, inoculate size 10^3, MR fuc −) was 12.5 % by weight and the “MIC (% by weight of pentane-1,5-diol)” value ([7]; S. aureus 916 × 8137, inoculate size 10^5, MR fuc −) was 10.0 % by weight. The “MIC (% by weight of pentane-1,5-diol)” value ([7]; S. aureus 916 × 8143, inoculate size 10^3, MR fuc −) was 12.5 % by weight, the “MIC (% by weight of pentane-1,5-diol)” value ([7]; S. aureus 916 × 8143, inoculate size 10^5, MR fuc −) was 12.5 % by weight and the “MIC (% by weight of pentane-1,5-diol)” value ([7]; S. aureus 916 × 8150, inoculate size 10^3, MR fuc −) was 12.5 % by weight. The “MIC (% by weight of pentane-1,5-diol)” value ([7]; S. aureus 916 × 8150, inoculate size 10^5, MR fuc −) was 15.0 % by weight, the “MIC (% by weight of pentane-1,5-diol)” value ([7]; S. aureus 916 × 8155, inoculate size 10^3, MR fuc −) was 10.0 % by weight and the “MIC (% by weight of pentane-1,5-diol)” value ([7]; S. aureus 916 × 8155, inoculate size 10^5, MR fuc −) was 12.5 % by weight. The “MIC (% by weight of pentane-1,5-diol)” value ([7]; S. aureus 916 × 8158, inoculate size 10^3, MR fuc −) was 12.5 % by weight, the “MIC (% by weight of pentane-1,5-diol)” value ([7]; S. aureus 916 × 8158, inoculate size 10^5, MR fuc −) was 15.0 % by weight and the “MIC (% by weight of pentane-1,5-diol)” value ([7]; S. aureus 916 × 8163, inoculate size 10^3, MR fuc +) was 12.5 % by weight. For the same molecule, the “MIC (% by weight of pentane-1,5-diol)” value ([7]; S. aureus 916 × 8163, inoculate size 10^5, MR fuc +) was 17.5 % by weight, the “MIC (% by weight of pentane-1,5-diol)” value ([7]; S. aureus 916 × 8180, inoculate size 10^3, MR fuc −) was 12.5 % by weight and the “MIC (% by weight of pentane-1,5-diol)” value ([7]; S. aureus 916 × 8180, inoculate size 10^5, MR fuc −) was 15.0 % by weight. For the same molecule, the “MIC (% by weight of pentane-1,5-diol)” value ([7]; S. aureus 916 × 8181, inoculate size 10^3, MR fuc −) was 12.5 % by weight, the “MIC (% by weight of pentane-1,5-diol)” value ([7]; S. aureus 916 × 8181, inoculate size 10^5, MR fuc −) was 15.0 % by weight and the “MIC (% by weight of pentane-1,5-diol)” value ([7]; S. aureus 916 × 8183, inoculate size 10^3, MR fuc −) was 12.5 % by weight. For the same molecule, the “MIC (% by weight of pentane-1,5-diol)” value ([7]; S. aureus 916 × 8183, inoculate size 10^5, MR fuc −) was 17.5 % by weight, the “MIC (% by weight of pentane-1,5-diol)” value ([7]; S. aureus 916 × 8184, inoculate size 10^3, MR fuc +) was 10.0 % by weight and the “MIC (% by weight of pentane-1,5-diol)” value ([7]; S. aureus 916 × 8184, inoculate size 10^5, MR fuc +) was 12.5 % by weight. For the same molecule, the “MIC (% by weight of pentane-1,5-diol)” value ([7]; S. aureus 916 × 8191, inoculate size 10^3, MR fuc −) was 12.5 % by weight, the “MIC (% by weight of pentane-1,5-diol)” value ([7]; S. aureus 916 × 8191, inoculate size 10^5, MR fuc −) was 15.0 % by weight and the “MIC (% by weight of pentane-1,5-diol)” value ([8]; E. coli 921 × 57387, inoculate size 10^3, MR tri +) was 5.0 % by weight. For the same molecule, the “MIC (% by weight of pentane-1,5-diol)” value ([8]; E. coli 921 × 57387, inoculate size 10^5, MR tri +) was 10.0 % by weight, the “MIC (% by weight of pentane-1,5-diol)” value ([8]; E. coli 921 × 57388, inoculate size 10^3) was 5.0 % by weight and the “MIC (% by weight of pentane-1,5-diol)” value ([8]; E. coli 921 × 57388, inoculate size 10^5) was 10.0 % by weight. For the same molecule, the “MIC (% by weight of pentane-1,5-diol)” value ([8]; E. coli 921 × 57389, inoculate size 10^3) was 5.0 % by weight, the “MIC (% by weight of pentane-1,5-diol)” value ([8]; E. coli 921 × 57389, inoculate size 10^5) was 10.0 % by weight and the “MIC (% by weight of pentane-1,5-diol)” value ([8]; E. coli 921 × 57397, inoculate size 10^3) was 5.0 % by weight. The “MIC (% by weight of pentane-1,5-diol)” value ([8]; E. coli 921 × 57397, inoculate size 10^5) was 10.0 % by weight.
